The text below walks through data of patent US20250100995A1, “CEREBLON BINDING COMPOUNDS, COMPOSITIONS THEREOF, AND METHODS OF TREATMENT THEREWITH” (CELGENE CORPORATION, priority 2021, published 2025).

The test deals with T1, AR (Homo sapiens, UniProt P10275).
T1 construct: endogenous in cells; host or cells: VCaP cells
T1 sequence (P10275 1-920): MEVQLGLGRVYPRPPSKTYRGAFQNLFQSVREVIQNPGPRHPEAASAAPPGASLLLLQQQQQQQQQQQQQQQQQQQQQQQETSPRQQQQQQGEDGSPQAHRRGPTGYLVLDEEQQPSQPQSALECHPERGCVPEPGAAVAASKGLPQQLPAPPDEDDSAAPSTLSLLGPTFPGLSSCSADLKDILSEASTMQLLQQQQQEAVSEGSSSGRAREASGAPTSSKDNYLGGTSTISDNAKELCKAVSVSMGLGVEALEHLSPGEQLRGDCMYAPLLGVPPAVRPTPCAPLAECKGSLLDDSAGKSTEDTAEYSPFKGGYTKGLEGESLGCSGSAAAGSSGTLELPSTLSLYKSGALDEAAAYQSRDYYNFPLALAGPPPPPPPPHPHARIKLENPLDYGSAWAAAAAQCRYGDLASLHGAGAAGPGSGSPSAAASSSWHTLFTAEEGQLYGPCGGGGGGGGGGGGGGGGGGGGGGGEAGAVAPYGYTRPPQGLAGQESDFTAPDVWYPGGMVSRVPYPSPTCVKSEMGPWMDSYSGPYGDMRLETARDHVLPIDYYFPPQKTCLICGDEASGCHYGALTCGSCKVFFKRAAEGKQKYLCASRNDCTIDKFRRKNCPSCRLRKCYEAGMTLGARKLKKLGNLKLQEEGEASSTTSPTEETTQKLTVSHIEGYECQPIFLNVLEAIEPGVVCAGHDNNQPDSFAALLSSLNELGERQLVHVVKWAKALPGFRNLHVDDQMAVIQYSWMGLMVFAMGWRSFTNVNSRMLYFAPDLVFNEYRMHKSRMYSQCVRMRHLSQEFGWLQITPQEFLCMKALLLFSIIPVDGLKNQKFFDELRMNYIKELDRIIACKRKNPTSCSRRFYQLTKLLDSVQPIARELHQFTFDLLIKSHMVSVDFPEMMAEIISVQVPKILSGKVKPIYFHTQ
Description: VCAP AR Degradation Assay. Type of test: cell-based. The settings on record: VCaP cells, 24 h, AR ELISA; for DC50: concentration of compound when AR level = 50% of DMSO control; for Y: lowest measured AR level normalized to DMSO control (AR degradation efficiency). The protocol: VCAP AR Degradation Assay. Test compounds were pre-dispensed into a Corning CellBind 96-well clear bottom plate (Cat #3300) using an acoustic dispenser to make a 10-point concentration series at 1:3 dilution for each compound. The final top concentration of each compound was 5 μM. DMSO at a final concentration of 0.1% was used as a control. VCaP cells cultured in DMEM with 8% fetal bovine serum (FBS) were seeded at 50K cells per well in a 200 μL volume into the compound plate and incubated at 37° C. in a CO2 incubator for 24 h. The medium was carefully removed from the cells and the plate was placed on ice. One hundred μL of ice-cold 1× cell lysis buffer from Cell Signaling Technologies (Cat #9803) was added to each well of the cells and the plate was incubated at 4° C. on a shaker for 1 h. Fifteen μL of cell lysate was used for AR ELISA detection using a PathScan Total Sandwich AR ELISA kit (Cell Signaling Technology, Cat #12580). AR levels in compound-treated wells were normalized to that of DMSO control and expressed as percent of control (PoC) (y). A Four Parameter Logistic Model (Sigmoidal Dose-Response Model) was used to determine the compound's DC50, and EC50, using the following equation: […]
The lowest measured AR level normalized to DMSO control in response to compound treatment, termed Y value, was used to characterize the compound-mediated AR degradation efficiency.

The structures appear in SMILES notation. Structures can show the parent of a compound that is named as a salt. Where only a bound is given, the exact number is not on record here.

As usually defined, the DC50 is the midpoint of the concentration-degradation curve. Low readings indicate a more potent degrader, high ones a less potent degrader. In the case of `C[C@@H]1CN(CCO[C@H]2CC[C@H](N3C(=S)N(c4ccc(C#N)c(C(F)(F)F)c4)C(=O)C3(C)C)CC2)C[C@H](C)N1CCCOc1cc(C2CCC(=O)NC2=O)ccn1` (stereo partly drawn) [Cmpd 16, 4-(3-(trans-4-(2-((3R,5S)-4-(3-((4-(2,6-Dioxopiperidin-3-yl)pyridin-2-yl)oxy)propyl)-3,5-dimethylpiperazin-1-yl)ethoxy)cyclohexyl)-4,4-dimethyl-5-oxo-2-thioxoimidazolidin-1-yl)-2-(trifluoromethyl)benzonitrile hydrochloride], the DC50 was in the range of 50 to 200 nM and the Y result was “*** (40%<Y<80%)”.
For `CC1(C)C(=O)N(c2cnc(C#N)c(C(F)(F)F)c2)C(=S)N1[C@H]1CC[C@H](OCCCN2CCN(CC(=O)Nc3cc(C4CCC(=O)NC4=O)ccn3)[C@@H](C(F)(F)F)C2)CC1` (stereo partly drawn) [Cmpd 25, 2-((R)-4-(3-(((trans)-4-(3-(6-Cyano-5-(trifluoromethyl)pyridin-3-yl)-5,5-dimethyl-4-oxo-2-thioxoimidazolidin-1-yl)cyclohexyl)oxy)propyl)-2-(trifluoromethyl)piperazin-1-yl)-N-(4-(2,6-dioxopiperidin-3-yl)pyridin-2-yl)acetamide], in that order: no more than 5 nM and “* (0<Y≤20%)”.
In the same order, the values of `C[C@@H]1C[C@H](OCCC[C@H]2CC[C@H](N3C(=S)N(c4ccc(C#N)c(C(F)(F)F)c4)C(=O)C3(C)C)CC2)C[C@H](C)N1CC(=O)Nc1cc(C2CCC(=O)NC2=O)ccn1` (stereo partly drawn) [Cmpd 28, 2-((2R,4r,6S)-4-(3-((trans)-4-(3-(4-Cyano-3-(trifluoromethyl)phenyl)-5,5-dimethyl-4-oxo-2-thioxoimidazolidin-1-yl)cyclohexyl)propoxy)-2,6-dimethylpiperidin-1-yl)-N-(4-(2,6-dioxopiperidin-3-yl)pyridin-2-yl)acetamide] are 5 to 50 nM and “** (20%<Y≤40%)”.
For `CC1(C)C(=O)N(c2ccc(C#N)c(C(F)(F)F)c2)C(=S)N1[C@H]1CC[C@H](OCCN2CCN(CC(=O)Nc3cc(C4CCC(=O)NC4=O)ccn3)[C@@H](C(F)(F)F)C2)CC1` (stereo partly drawn) [Cmpd 21, 2-((R)-4-(2-(((trans)-4-(3-(4-Cyano-3-(trifluoromethyl)phenyl)-5,5-dimethyl-4-oxo-2-thioxoimidazolidin-1-yl)cyclohexyl)oxy)ethyl)-2-(trifluoromethyl)piperazin-1-yl)-N-(4-(2,6-dioxopiperidin-3-yl)pyridin-2-yl)acetamide], in that order: 5 to 50 nM and “* (0<Y≤20%)”.
Take `C[C@@H]1CN(CCO[C@H]2CC[C@H](N3C(=S)N(c4ccc(C#N)c(C(F)(F)F)c4)C(=O)C3(C)C)CC2)C[C@H](C)N1CC(=O)Nc1ccc(C2(C)CCC(=O)NC2=O)cn1` (single isomer, unassigned) [Cmpd 6, hydrochloride]: the DC50 is greater than 200 nM and the Y entry is reported as “*** (40%<Y<80%)”.
In the same order, the values of `C[C@@H]1CN(CCO[C@H]2CC[C@H](N3C(=S)N(c4ccc(C#N)c(C(F)(F)F)c4)C(=O)C3(C)C)CC2)C[C@H](C)N1CCOc1ccc(N2CCC(=O)NC2=O)cn1` [Cmpd 11, 4-(3-(trans-4-(2-((3R,5S)-4-(2-((5-(2,4-Dioxotetrahydropyrimidin-1(2H)-yl)pyridin-2-yl)oxy)ethyl)-3,5-dimethylpiperazin-1-yl)ethoxy)cyclohexyl)-4,4-dimethyl-5-oxo-2-thioxoimidazolidin-1-yl)-2-(trifluoromethyl)benzonitrile hydrochloride] are greater than 200 nM and “*** (40%<Y<80%)”.
`C[C@@H]1CN(CCO[C@H]2CC[C@H](N3C(=S)N(c4ccc(C#N)c(C(F)(F)F)c4)C(=O)C3(C)C)CC2)C[C@H](C)N1CC(=O)Nc1cc(C2(C)CCC(=O)NC2=O)ccn1` (single isomer, unassigned) [Cmpd 8, hydrochloride] had a DC50 of no more than 5 nM. Further, the Y entry (hydrochloride) is on record as “* (0<Y≤20%)”.
With `C[C@@H]1CN(CCCC[C@H]2CC[C@H](N3C(=S)N(c4ccc(C#N)c(C(F)(F)F)c4)C(=O)C3(C)C)CC2)C[C@H](C)N1CC(=O)Nc1cc(N2CCC(=O)NC2=O)ccn1` [Cmpd 17, 2-((2R,6S)-4-(4-((trans)-4-(3-(4-Cyano-3-(trifluoromethyl)phenyl)-5,5-dimethyl-4-oxo-2-thioxoimidazolidin-1-yl)cyclohexyl)butyl)-2,6-dimethylpiperazin-1-yl)-N-(4-(2,4-dioxotetrahydropyrimidin-1(2H)-yl)pyridin-2-yl)acetamide], the half-maximal degradation concentration (DC50) lay in the range of 5 to 50 nM and the Y entry was “** (20%<Y≤40%)”.
In the case of `CC1(C)C(=O)N(c2ccc(C#N)c(C(F)(F)F)c2)C(=S)N1[C@H]1CC[C@H](CCCN2CCN(CC(=O)Nc3cc(C4CCC(=O)NC4=O)ccn3)[C@@H](C(F)(F)F)C2)CC1` (stereo partly drawn) [Cmpd 20, 2-((R)-4-(3-((trans)-4-(3-(4-Cyano-3-(trifluoromethyl)phenyl)-5,5-dimethyl-4-oxo-2-thioxoimidazolidin-1-yl)cyclohexyl)propyl)-2-(trifluoromethyl)piperazin-1-yl)-N-(4-(2,6-dioxopiperidin-3-yl)pyridin-2-yl)acetamide], the DC50 lay within 5 to 50 nM and the Y entry is listed as “** (20%<Y≤40%)”.
In the same order, the values of `C[C@@H]1CN(CCO[C@H]2CC[C@H](N3C(=S)N(c4ccc(C#N)c(Cl)c4)C(=O)C3(C)C)CC2)C[C@H](C)N1CC(=O)Nc1cc(C2CCC(=O)NC2=O)ccn1` (stereo partly drawn) [Cmpd 4, 2-((2R,6S)-4-(2-((trans-4-(3-(3-Chloro-4-cyanophenyl)-5,5-dimethyl-4-oxo-2-thioxoimidazolidin-1-yl)cyclohexyl)oxy)ethyl)-2,6-dimethylpiperazin-1-yl)-N-(4-(2,6-dioxopiperidin-3-yl)pyridin-2-yl)acetamide hydrochloride] are 5 to 50 nM and “** (20%<Y≤40%)”.
As for `C[C@@H]1CN(CCCC[C@H]2CC[C@H](N3C(=S)N(c4ccc(C#N)c(C(F)(F)F)c4)C(=O)C3(C)C)CC2)C[C@H](C)N1CC(=O)Nc1cc(C2CCC(=O)NC2=O)ccn1` (stereo partly drawn) [Cmpd 14, 2-((2R,6S)-4-(4-(trans-4-(3-(4-Cyano-3-(trifluoromethyl)phenyl)-5,5-dimethyl-4-oxo-2-thioxoimidazolidin-1-yl)cyclohexyl)butyl)-2,6-dimethylpiperazin-1-yl)-N-(4-(2,6-dioxopiperidin-3-yl)pyridin-2-yl)acetamide hydrochloride], the DC50 lay in the range of 5 to 50 nM and the Y result is recorded as “* (0<Y≤20%)”.
In the same order, the values of `C[C@@H]1C[C@H](OCCO[C@H]2CC[C@H](N3C(=S)N(c4ccc(C#N)c(C(F)(F)F)c4)C(=O)C3(C)C)CC2)C[C@H](C)N1CC(=O)Nc1cc(C2CCC(=O)NC2=O)ccn1` (stereo partly drawn) [Cmpd 29, 2-((2R,4r,6S)-4-(2-(((trans)-4-(3-(4-Cyano-3-(trifluoromethyl)phenyl)-5,5-dimethyl-4-oxo-2-thioxoimidazolidin-1-yl)cyclohexyl)oxy)ethoxy)-2,6-dimethylpiperidin-1-yl)-N-(4-(2,6-dioxopiperidin-3-yl)pyridin-2-yl)acetamide] are 5 to 50 nM and “** (20%<Y≤40%)”.
As to `C[C@@H]1CN(CCO[C@H]2CC[C@H](N3C(=S)N(c4ccc(C#N)c(C(F)(F)F)c4)C(=O)C3(C)C)CC2)C[C@H](C)N1CC(=O)Nc1ccc(C2CCC(=O)NC2=O)cn1` (stereo partly drawn) [Cmpd 2, 2-((2R,6S)-4-(2-((trans-4-(3-(4-Cyano-3-(trifluoromethyl)phenyl)-5,5-dimethyl-4-oxo-2-thioxoimidazolidin-1-yl)cyclohexyl)oxy)ethyl)-2,6-dimethylpiperazin-1-yl)-N-(5-(2,6-dioxopiperidin-3-yl)pyridin-2-yl)acetamide hydrochloride], the DC50 is 5 to 50 nM and the Y entry was “** (20%<Y≤40%)”.
